Measurements published in US7253175B2, “Method for treating athlete's foot” (priority 2003, dated 2007).
Structures can show the parent of a compound that is named as a salt.

Tested on: athlete's foot (fungal infection of toe nails and skin of the feet)
Experiment: Treatment of a patient with athlete's foot (case example)
Type: in vivo, human
Text: Fungal infections, including tineapedis (fungal infections on the feet), tineamanus (fungal infections on the hands) and tineacorporis (fungal infections on the body), are diagnosed by methods or tests commonly conducted by a person of ordinary skill in the art. The common symptoms of such disease are described above. In the case of fungal infection on nails such as finger nails and toenails, the infected areas usually show thickening of the nails with white spots, while if the skin is infected, itching scaling, redness and/or blisters will appear. A laboratory test may be conducted by culturing a skin sample or nail sample in the infected area in an appropriate medium to observe the growth of fungi. The infections may also be identified by scraping the infected skin or nail and examining the such specimen under a microscope in the presence of potassium hydroxide, which assists to determine the presence of fungi.
A patient suffered from athlete's foot for four years. The patients toe nails had became whitening, thickening and cracking due to the infection. […] The patient was reported to experienced pain due to the thickening and cracking of the toe nails the swelling of the skin. […]

In the case of `CC(C)[C@H](N)C(=O)OCCOCn1cnc2c(=O)[nH]c(N)nc21` [Valtrex, L-valine, 2-[(2-amino-1,6-dihydro-6-oxo-9H-purin-9-yl)methoxy]ethyl ester, monhydrochloride], the “laboratory test for fungal infections on the patient's toe nails and skin” value (after daily dosage of three grams divided into three times for seven days) is reported as “no longer fungal infections” and the “symptoms of the patient's athlete's foot at the end of treatment” value (patient, about 230 pounds, daily dosage of three grams divided into three times for seven days) is reported as “completely disappear”.
